Paper PMC7317746 (Environmental and Molecular Mutagenesis, 2020)
Where two headings read alike, the source gives them in different places. Marks after values point to notes of the source that are not given here.

What was measured:
[1] = system: male Sprague Dawley rats; assay: Pig‐a assay; format: in vivo, rat
[2] = system: male Sprague Dawley rats; assay: Micronucleus assay in peripheral blood erythrocytes; format: in vivo, rat
[3] = system: peripheral blood cells; assay: Comet assay, peripheral blood cells; format: in vivo, rat
[4] = system: liver cells; assay: Comet assay, liver cells; format: in vivo, rat
[5] = system: male Sprague Dawley rats; settings: 1-Month Study, 1,000 mg/kg/day
[6] = system: bacteria, in vitro mammalian cell and in vivo transgenic rat assays; settings: ref IARC, 1990, Bergman et al., 1996; cited from earlier work
[7] = 3-Day Study, 1,000 mg/kg/day Days 1-3, Day 30
[8] = 3-Day Study, 1,000 mg/kg/day Days 1-3, Day 45
[9] = 3-Day Study, 1,000 mg/kg/day, Day -4 (pre-treatment)
[10] = 3-Day Study, 2,000 mg/kg/day Days 1-3, Day 15
[11] = 3-Day Study, 2,000 mg/kg/day Days 1-3, Day 30
[12] = 3-Day Study, 2,000 mg/kg/day Days 1-3, Day 45
[13] = 3-Day Study, 2,000 mg/kg/day, Day -4 (pre-treatment)
[14] = 1-Month Study, 250 mg/kg/day, Day 4
[15] = 1-Month Study, 250 mg/kg/day, Day 29
[16] = 1-Month Study, 500 mg/kg/day, Day 4
[17] = 1-Month Study, 500 mg/kg/day, Day 29
[18] = 1-Month Study, 1,000 mg/kg/day, Day 29
[19] = 3-Day Study, 500 mg/kg/day, Day 4
[20] = ≤1,000 mg/kg/day, up to 29 days
[21] = 3-Day Study, 500 mg/kg/day, Day 3
[22] = 3-Day Study, 1,000 mg/kg/day, Day 3
[23] = 3-Day Study, 2,000 mg/kg/day, Day 3

SMILES: CC(=O)Nc1ccc(O)cc1 [acetaminophen, Acetaminophen]
- Number of CD59‐Neg RBCs per 10^6 RBCs mean ± SD [1, 7]: 0.8 ± 0.4 per 10^6 RBCs
- Number of CD59‐Neg RETs per 10^6 RETs mean ± SD [1, 7]: 1.5 ± 1.8 per 10^6 RETs
- %RETs mean ± SD [1, 8]: 2.9 ± 0.3%
- Number of CD59‐Neg RBCs per 10^6 RBCs mean ± SD [1, 8]: 1.1 ± 1.1 per 10^6 RBCs
- Number of CD59‐Neg RETs per 10^6 RETs mean ± SD [1, 8]: 2.0 ± 2.1 per 10^6 RETs
- %RETs mean ± SD [1, 9]: 3.6 ± 0.8%
- Number of CD59‐Neg RBCs per 10^6 RBCs mean ± SD [1, 9]: 0.4 ± 0.2 per 10^6 RBCs
- Number of CD59‐Neg RETs per 10^6 RETs mean ± SD [1, 9]: 1.2 ± 0.5 per 10^6 RETs
- %RETs mean ± SD [1, 10]: 5.7 ± 0.4 %
- Number of CD59‐Neg RBCs per 10^6 RBCs mean ± SD [1, 10]: 2.9 ± 6.1 per 10^6 RBCs
- Number of CD59‐Neg RETs per 10^6 RETs mean ± SD [1, 10]: 11.3 ± 26.2 per 10^6 RETs
- %RETs mean ± SD [1, 11]: 3.3 ± 0.6%
- Number of CD59‐Neg RBCs per 10^6 RBCs mean ± SD [1, 11]: 32.4 ± 78.4 per 10^6 RBCs
- Number of CD59‐Neg RETs per 10^6 RETs mean ± SD [1, 11]: 40.3 ± 98.3 per 10^6 RETs
- %RETs mean ± SD [1, 12]: 2.4 ± 0.2 %
- Number of CD59‐Neg RBCs per 10^6 RBCs mean ± SD [1, 12]: 38.5 ± 92.8 per 10^6 RBCs
- Number of CD59‐Neg RETs per 10^6 RETs mean ± SD [1, 12]: 15.1 ± 36.2 per 10^6 RETs
- %RETs mean ± SD [1, 13]: 3.2 ± 0.8%
- Number of CD59‐Neg RBCs per 10^6 RBCs mean ± SD [1, 13]: 0.3 ± 0.1 per 10^6 RBCs
- Number of CD59‐Neg RETs per 10^6 RETs mean ± SD [1, 13]: 1.2 ± 0.6 per 10^6 RETs
- Mutagenicity in the rat Pig‐a model (conclusion) ([1]; 250-2,000 mg/kg/day, 3-Day, 2-Week and 1-Month Studies): not mutagenic
- %MN‐RETs mean ± SD [2, 14]: 0.14 ± 0.03%
- %RETs mean ± SD [2, 14]: 2.89 ± 1.89%
- %MN‐RETs mean ± SD [2, 15]: 0.15 ± 0.05%
- %RETs mean ± SD [2, 15]: 1.32 ± 0.25%
- %MN‐RETs mean ± SD [2, 16]: 0.18 ± 0.07%
- %RETs mean ± SD [2, 16]: 1.80 ± 1.98%
- %MN‐RETs mean ± SD [2, 17]: 0.22 ± 0.04^ %
- %RETs mean ± SD [2, 17]: 1.03 ± 0.28%
- %RETs mean ± SD ([2]; 1-Month Study, 1,000 mg/kg/day, Day 4): 0.03 ± 0.02 %
- %MN‐RETs mean ± SD [2, 18]: 0.59 ± 0.23^ %
- %RETs mean ± SD [2, 18]: 1.48 ± 1.05%
- %MN‐RETs mean ± SD [2, 19]: 0.12 ± 0.05%
- %RETs mean ± SD [2, 19]: 0.89 ± 0.68%
- %RETs mean ± SD ([2]; 3-Day Study, 1,000 mg/kg/day, Day 4): 0.08 ± 0.08 %
- %MN‐RETs mean ± SD ([2]; 3-Day Study, 1,000 mg/kg/day, Day 4, only 1 animal analyzed): 0.21 ^a %
- %RETs mean ± SD ([2]; 3-Day Study, 2,000 mg/kg/day, Day 4): 0.03 ± 0.04 %
- Micronucleus endpoint in peripheral blood RETs (conclusion) [2, 20]: negative
- Blood % tail intensity mean ± SD [3, 15]: 0.13 ± 0.08%
- Blood % tail intensity mean ± SD [3, 17]: 0.19 ± 0.10%
- Blood % tail intensity mean ± SD [3, 18]: 0.24 ± 0.15%
- Blood % tail intensity mean ± SD [3, 21]: 0.31 ± 0.11%
- Blood % tail intensity mean ± SD [3, 22]: 0.41 ± 0.12 %
- Blood % tail intensity mean ± SD [3, 23]: 0.34 ± 0.07%
- Increase in % tail intensity in peripheral blood cells versus vehicle ([3]; 3-Day Study, at 1,000 mg/kg/day, not considered biologically relevant): up to 1.6 fold
- Liver % tail intensity mean ± SD [4, 15]: 0.20 ± 0.11%
- Liver % tail intensity mean ± SD [4, 17]: 0.18 ± 0.06%
- Liver % tail intensity mean ± SD [4, 18]: 0.34 ± 0.25 %
- Liver % tail intensity mean ± SD [4, 21]: 0.22 ± 0.09%
- Liver % tail intensity mean ± SD [4, 22]: 0.27 ± 0.10%
- Liver % tail intensity mean ± SD [4, 23]: 0.28 ± 0.07 %
- Comet endpoint in peripheral blood cells and liver cells (conclusion) [4, 20]: negative
- Rats with minimal remnants of treatment‐related liver changes ([5]; after 1-month recovery period): 2/6
- Rats with minimal to slight liver changes in the centrilobular region ([5]; after 1 month): 9/16
- Rats with minimal to slight liver changes in the centrilobular region ([5]; after 1 week): 5/5
- Mutagenicity [6]: nonmutagenic
